{
  "source": "the supplement of paper PMC10307832",
  "experiment_in_all_cases": "relative viability (nuclei count vs DMSO), 5 days (fraction); higher = more cells survive",
  "key": {"EMC-BAC-2": {"system": "EMC-BAC-2", "outline": "(§1)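 Each reported value is a median over duplicate plates. It expresses relative viability: treated-well nuclei count divided by vehicle-well nuclei count. Lung cancer cell lines in 1536-well plates were dosed by pin tool a day after seeding, alone with one drug or with a fixed anchor-drug dose plus five library-drug doses (not always all listed) in √10 steps, and nuclei were counted after 5 days.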"}, "NCI-H1975": {"system": "NCI-H1975", "outline": "as §1"}, "NCI-H1792": {"system": "NCI-H1792", "outline": "as §1"}, "NCI-H596": {"system": "NCI-H596", "outline": "as §1"}, "PC-3 [JPC-3]": {"system": "PC-3 [JPC-3]", "outline": "as §1"}, "SW 900": {"system": "SW 900", "outline": "as §1"}, "NCI-H1666": {"system": "NCI-H1666", "outline": "as §1"}, "HCC-366": {"system": "HCC-366", "outline": "as §1"}, "NCI-H23": {"system": "NCI-H23", "outline": "as §1"}, "NCI-H1734": {"system": "NCI-H1734", "outline": "as §1"}, "NCI-H2170": {"system": "NCI-H2170", "outline": "as §1"}, "A-427": {"system": "A-427", "outline": "as §1"}, "LK-2": {"system": "LK-2", "outline": "as §1"}, "LOU-NH91": {"system": "LOU-NH91", "outline": "as §1"}, "H3255": {"system": "H3255", "outline": "as §1"}, "NCI-H1755": {"system": "NCI-H1755", "outline": "as §1"}, "EKVX": {"system": "EKVX", "outline": "as §1"}, "ChaGo-K-1": {"system": "ChaGo-K-1", "outline": "as §1"}, "NCI-H441": {"system": "NCI-H441", "outline": "as §1"}},
  "data": [
    {"smiles": "CC1(C)CCC(c2ccc(Cl)cc2)=C(CN2CCN(c3ccc(C(=O)NS(=O)(=O)c4ccc(N[C@H](CCN5CCOCC5)CSc5ccccc5)c(S(=O)(=O)C(F)(F)F)c4)cc3)CC2)C1", "note": "[Navitoclax] + NC(=O)Nc1cc(-c2cccc(F)c2)sc1C(=O)N[C@H]1CCCNC1 [AZD7762] (partner 0.2 µM)", "values": [
      {"measurement": "relative viability", "setting": "EMC-BAC-2; first compound 0.005 µM", "value": 1.03},
      {"measurement": "relative viability", "setting": "EMC-BAC-2; first compound 0.01581 µM", "value": 1.26},
      {"measurement": "relative viability", "setting": "EMC-BAC-2; first compound 0.05 µM", "value": 1.07},
      {"measurement": "relative viability", "setting": "EMC-BAC-2; first compound 0.1581 µM", "value": 1.09},
      {"measurement": "relative viability", "setting": "EMC-BAC-2; first compound 0.5 µM", "value": 1.13},
      {"measurement": "relative viability", "setting": "NCI-H1975; first compound 0.005 µM", "value": 0.855},
      {"measurement": "relative viability", "setting": "NCI-H1975; first compound 0.01581 µM", "value": 0.799},
      {"measurement": "relative viability", "setting": "NCI-H1975; first compound 0.05 µM", "value": 0.713},
      {"measurement": "relative viability", "setting": "NCI-H1975; first compound 0.1581 µM", "value": 0.752},
      {"measurement": "relative viability", "setting": "NCI-H1975; first compound 0.5 µM", "value": 0.646},
      {"measurement": "relative viability", "setting": "NCI-H1792; first compound 0.005 µM", "value": 0.593},
      {"measurement": "relative viability", "setting": "NCI-H1792; first compound 0.01581 µM", "value": 0.77},
      {"measurement": "relative viability", "setting": "NCI-H1792; first compound 0.1581 µM", "value": 0.559},
      {"measurement": "relative viability", "setting": "NCI-H1792; first compound 0.5 µM", "value": 0.502},
      {"measurement": "relative viability", "setting": "NCI-H596; first compound 0.005 µM", "value": 1.32},
      {"measurement": "relative viability", "setting": "NCI-H596; first compound 0.01581 µM", "value": 1.26},
      {"measurement": "relative viability", "setting": "NCI-H596; first compound 0.05 µM", "value": 0.919},
      {"measurement": "relative viability", "setting": "NCI-H596; first compound 0.1581 µM", "value": 1.05},
      {"measurement": "relative viability", "setting": "NCI-H596; first compound 0.5 µM", "value": 1.05},
      {"measurement": "relative viability", "setting": "PC-3 [JPC-3]; first compound 0.005 µM", "value": 0.726},
      {"measurement": "relative viability", "setting": "PC-3 [JPC-3]; first compound 0.01581 µM", "value": 0.972},
      {"measurement": "relative viability", "setting": "PC-3 [JPC-3]; first compound 0.05 µM", "value": 0.483},
      {"measurement": "relative viability", "setting": "PC-3 [JPC-3]; first compound 0.1581 µM", "value": 0.702},
      {"measurement": "relative viability", "setting": "PC-3 [JPC-3]; first compound 0.5 µM", "value": 0.759},
      {"measurement": "relative viability", "setting": "SW 900; first compound 0.005 µM", "value": 0.538},
      {"measurement": "relative viability", "setting": "SW 900; first compound 0.01581 µM", "value": 0.651},
      {"measurement": "relative viability", "setting": "SW 900; first compound 0.1581 µM", "value": 0.573},
      {"measurement": "relative viability", "setting": "SW 900; first compound 0.5 µM", "value": 0.476},
      {"measurement": "relative viability", "setting": "NCI-H1666; first compound 0.005 µM", "value": 0.934},
      {"measurement": "relative viability", "setting": "NCI-H1666; first compound 0.01581 µM", "value": 0.883},
      {"measurement": "relative viability", "setting": "NCI-H1666; first compound 0.05 µM", "value": 0.738},
      {"measurement": "relative viability", "setting": "NCI-H1666; first compound 0.1581 µM", "value": 0.861},
      {"measurement": "relative viability", "setting": "NCI-H1666; first compound 0.5 µM", "value": 0.882},
      {"measurement": "relative viability", "setting": "HCC-366; first compound 0.005 µM", "value": 0.27},
      {"measurement": "relative viability", "setting": "HCC-366; first compound 0.01581 µM", "value": 0.296},
      {"measurement": "relative viability", "setting": "HCC-366; first compound 0.1581 µM", "value": 0.197},
      {"measurement": "relative viability", "setting": "HCC-366; first compound 0.5 µM", "value": 0.214},
      {"measurement": "relative viability", "setting": "NCI-H23; first compound 0.005 µM", "value": 0.28},
      {"measurement": "relative viability", "setting": "NCI-H23; first compound 0.01581 µM", "value": 0.33},
      {"measurement": "relative viability", "setting": "NCI-H23; first compound 0.05 µM", "value": 0.291},
      {"measurement": "relative viability", "setting": "NCI-H23; first compound 0.1581 µM", "value": 0.195},
      {"measurement": "relative viability", "setting": "NCI-H23; first compound 0.5 µM", "value": 0.23},
      {"measurement": "relative viability", "setting": "NCI-H1734; first compound 0.005 µM", "value": 0.533},
      {"measurement": "relative viability", "setting": "NCI-H1734; first compound 0.01581 µM", "value": 0.555},
      {"measurement": "relative viability", "setting": "NCI-H1734; first compound 0.1581 µM", "value": 0.543},
      {"measurement": "relative viability", "setting": "NCI-H1734; first compound 0.5 µM", "value": 0.506},
      {"measurement": "relative viability", "setting": "NCI-H2170; first compound 0.005 µM", "value": 0.883},
      {"measurement": "relative viability", "setting": "NCI-H2170; first compound 0.01581 µM", "value": 0.912},
      {"measurement": "relative viability", "setting": "NCI-H2170; first compound 0.05 µM", "value": 0.845},
      {"measurement": "relative viability", "setting": "NCI-H2170; first compound 0.1581 µM", "value": 0.798},
      {"measurement": "relative viability", "setting": "NCI-H2170; first compound 0.5 µM", "value": 0.623},
      {"measurement": "relative viability", "setting": "A-427; first compound 0.005 µM", "value": 0.79},
      {"measurement": "relative viability", "setting": "A-427; first compound 0.01581 µM", "value": 0.822},
      {"measurement": "relative viability", "setting": "A-427; first compound 0.05 µM", "value": 0.639},
      {"measurement": "relative viability", "setting": "A-427; first compound 0.1581 µM", "value": 0.722},
      {"measurement": "relative viability", "setting": "A-427; first compound 0.5 µM", "value": 0.718},
      {"measurement": "relative viability", "setting": "LK-2; first compound 0.005 µM", "value": 0.593},
      {"measurement": "relative viability", "setting": "LK-2; first compound 0.01581 µM", "value": 0.567},
      {"measurement": "relative viability", "setting": "LK-2; first compound 0.05 µM", "value": 0.295},
      {"measurement": "relative viability", "setting": "LK-2; first compound 0.1581 µM", "value": 0.358},
      {"measurement": "relative viability", "setting": "LK-2; first compound 0.5 µM", "value": 0.351},
      {"measurement": "relative viability", "setting": "LOU-NH91; first compound 0.005 µM", "value": 0.746},
      {"measurement": "relative viability", "setting": "LOU-NH91; first compound 0.01581 µM", "value": 0.792},
      {"measurement": "relative viability", "setting": "LOU-NH91; first compound 0.05 µM", "value": 0.656},
      {"measurement": "relative viability", "setting": "LOU-NH91; first compound 0.1581 µM", "value": 0.535},
      {"measurement": "relative viability", "setting": "LOU-NH91; first compound 0.5 µM", "value": 0.306},
      {"measurement": "relative viability", "setting": "H3255; first compound 0.005 µM", "value": 0.891},
      {"measurement": "relative viability", "setting": "H3255; first compound 0.01581 µM", "value": 1.03},
      {"measurement": "relative viability", "setting": "H3255; first compound 0.05 µM", "value": 0.851},
      {"measurement": "relative viability", "setting": "H3255; first compound 0.1581 µM", "value": 0.922},
      {"measurement": "relative viability", "setting": "H3255; first compound 0.5 µM", "value": 0.805},
      {"measurement": "relative viability", "setting": "NCI-H1755; first compound 0.005 µM", "value": 0.426},
      {"measurement": "relative viability", "setting": "NCI-H1755; first compound 0.01581 µM", "value": 0.462},
      {"measurement": "relative viability", "setting": "NCI-H1755; first compound 0.05 µM", "value": 0.322},
      {"measurement": "relative viability", "setting": "NCI-H1755; first compound 0.1581 µM", "value": 0.439},
      {"measurement": "relative viability", "setting": "NCI-H1755; first compound 0.5 µM", "value": 0.474},
      {"measurement": "relative viability", "setting": "EKVX; first compound 0.005 µM", "value": 0.728},
      {"measurement": "relative viability", "setting": "EKVX; first compound 0.01581 µM", "value": 0.784},
      {"measurement": "relative viability", "setting": "EKVX; first compound 0.05 µM", "value": 0.769},
      {"measurement": "relative viability", "setting": "EKVX; first compound 0.1581 µM", "value": 0.729},
      {"measurement": "relative viability", "setting": "EKVX; first compound 0.5 µM", "value": 0.777},
      {"measurement": "relative viability", "setting": "ChaGo-K-1; first compound 0.005 µM", "value": 0.879},
      {"measurement": "relative viability", "setting": "ChaGo-K-1; first compound 0.01581 µM", "value": 0.875},
      {"measurement": "relative viability", "setting": "ChaGo-K-1; first compound 0.05 µM", "value": 0.655},
      {"measurement": "relative viability", "setting": "ChaGo-K-1; first compound 0.1581 µM", "value": 0.883},
      {"measurement": "relative viability", "setting": "ChaGo-K-1; first compound 0.5 µM", "value": 0.803},
      {"measurement": "relative viability", "setting": "NCI-H441; first compound 0.005 µM", "value": 1.12},
      {"measurement": "relative viability", "setting": "NCI-H441; first compound 0.01581 µM", "value": 1.19},
      {"measurement": "relative viability", "setting": "NCI-H441; first compound 0.05 µM", "value": 1.22},
      {"measurement": "relative viability", "setting": "NCI-H441; first compound 0.1581 µM", "value": 1.04},
      {"measurement": "relative viability", "setting": "NCI-H441; first compound 0.5 µM", "value": 1.24}
    ]}
  ]
}
